Test system: yeast genes (level of expressed mRNA)
Experiment: DNA chip analysis of expressed mRNA of yeast genes after 2 h culture with a toxic chemical substance
Format: cell-based, Saccharomyces cerevisiae S288C
How it was run: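 S. cerevisiae S288C grown at 25° C in YPD; toxicant added at log phase at growth-inhibitory, non-lethal levels for 2 h, untreated cells as control. Poly(A) mRNA reverse-transcribed with Cy3/Cy5-dUTP, hybridized to whole-genome chip at 65° C >12 h; value is fluorescence ratio versus untreated.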

Question: How did the “The level of expressed mRNA in the presence of chemical substance/” value (yeast gene YAL053W, ratio to control without chemical) turn out when CdCl2 [(2)] was run?
Answer: 0.9

Question: What about the “The level of expressed mRNA in the presence of chemical substance/The level of expressed mRNA in the absence of chemical substance” value (yeast gene YAR010C) of the same substance?
Answer: 1.2

Question: What about the “The level of expressed mRNA in the presence of chemical substance/The level of expressed mRNA in the absence of chemical substance” value (yeast gene YBL005W-A) of the same substance?
Answer: 0.9

Question: And the “The level of expressed mRNA in the presence of chemical substance/The level of expressed mRNA in the absence of chemical substance” value (yeast gene YBL041W)?
Answer: 1.4

Question: And the “The level of expressed mRNA in the presence of chemical substance/The level of expressed mRNA in the absence of chemical substance” value (yeast gene YBL043W)?
Answer: 1.2

Question: What about the “The level of expressed mRNA in the presence of chemical substance/” value (yeast gene YBL048W, ratio to control without chemical substance, 2 h culture) of the same substance?
Answer: 7.9

Question: What about the “The level of expressed mRNA in the presence of chemical substance/The level of expressed mRNA in the absence of chemical substance” value (yeast gene YBL078C) of the same substance?
Answer: 2.7

Question: And the “The level of expressed mRNA in the presence of chemical substance/” value (yeast gene YBL107C, ratio to control without chemical substance, 2 h culture)?
Answer: 1.1

Question: And the “The level of expressed mRNA in the presence of chemical substance/in the absence of chemical substance” value (yeast gene YBR036C)?
Answer: 1.7

Question: And the “The level of expressed mRNA in the presence of chemical substance/The level of expressed mRNA in the absence of chemical substance” value (yeast gene YBR214W)?
Answer: 2.1

Question: What about the “The level of expressed mRNA in the presence of chemical substance/in the absence of chemical substance” value (yeast gene YBR298C) of the same substance?
Answer: 1.0

Question: What about the “The level of expressed mRNA in the presence of chemical substance/The level of expressed mRNA in the absence of chemical substance” value (yeast gene YCL020W) of the same substance?
Answer: 2.5

Question: What about the “The level of expressed mRNA in the presence of chemical substance/The level of expressed mRNA in the absence of chemical substance” value (yeast gene YCL027W) of the same substance?
Answer: 2.0

Question: And the “The level of expressed mRNA in the presence of chemical substance/The level of expressed mRNA in the absence of chemical substance” value (yeast gene YCR004C)?
Answer: 1.0

Question: What about the “The level of expressed mRNA in the presence of chemical substance/The level of expressed mRNA in the absence of chemical substance” value (yeast gene YCR071C) of the same substance?
Answer: 0.7

Question: And the “The level of expressed mRNA in the presence of chemical substance/The level of expressed mRNA in the absence of chemical substance” value (yeast gene YCR088W)?
Answer: 1.1

Question: What about the “The level of expressed mRNA in the presence of chemical substance/The level of expressed mRNA in the absence of chemical substance” value (yeast gene YDL008W) of the same substance?
Answer: 1.0

Question: And the “The level of expressed mRNA in the presence of chemical substance/” value (yeast gene YDL072C, ratio to control without chemical)?
Answer: 1.1

Question: What about the “The level of expressed mRNA in the presence of chemical substance/in the absence of chemical substance” value (yeast gene YDL078C) of the same substance?
Answer: 1.1

Question: And the “The level of expressed mRNA in the presence of chemical substance/” value (yeast gene YDL204W, ratio to control without chemical)?
Answer: 1.9

Question: What about the “The level of expressed mRNA in the presence of chemical substance/in the absence of chemical substance” value (yeast gene YDL215C) of the same substance?
Answer: 1.5

Question: What about the “The level of expressed mRNA in the presence of chemical substance/” value (yeast gene YDL222C, ratio to control without chemical) of the same substance?
Answer: 1.1

Question: And the “The level of expressed mRNA in the presence of chemical substance/The level of expressed mRNA in the absence of chemical substance” value (yeast gene YDL238C)?
Answer: 1.0

Question: And the “The level of expressed mRNA in the presence of chemical substance/The level of expressed mRNA in the absence of chemical substance” value (yeast gene YDR055W)?
Answer: 2.1

Question: What about the “The level of expressed mRNA in the presence of chemical substance/The level of expressed mRNA in the absence of chemical substance” value (yeast gene YDR084C) of the same substance?
Answer: 0.9

Question: What about the “The level of expressed mRNA in the presence of chemical substance/The level of expressed mRNA in the absence of chemical substance” value (yeast gene YDR085C) of the same substance?
Answer: 1.8

Question: What about the “The level of expressed mRNA in the presence of chemical substance/The level of expressed mRNA in the absence of chemical substance” value (yeast gene YDR104C) of the same substance?
Answer: 1.1

Question: And the “The level of expressed mRNA in the presence of chemical substance/The level of expressed mRNA in the absence of chemical substance” value (yeast gene YDR115W)?
Answer: 0.9

Question: And the “The level of expressed mRNA in the presence of chemical substance/The level of expressed mRNA in the absence of chemical substance” value (yeast gene YDR259C)?
Answer: 1.0

Question: What about the “The level of expressed mRNA in the presence of chemical substance/in the absence of chemical substance” value (yeast gene YDR297W) of the same substance?
Answer: 0.8

Question: What about the “The level of expressed mRNA in the presence of chemical substance/The level of expressed mRNA in the absence of chemical substance” value (yeast gene YDR315C) of the same substance?
Answer: 1.4

Question: What about the “The level of expressed mRNA in the presence of chemical substance/” value (yeast gene YDR330W, ratio to control without chemical substance, 2 h culture) of the same substance?
Answer: 1.5

Question: What about the “The level of expressed mRNA in the presence of chemical substance/The level of expressed mRNA in the absence of chemical substance” value (yeast gene YDR358W) of the same substance?
Answer: 1.1

Question: What about the “The level of expressed mRNA in the presence of chemical substance/in the absence of chemical substance” value (yeast gene YDR387C) of the same substance?
Answer: 0.9

Question: What about the “The level of expressed mRNA in the presence of chemical substance/The level of expressed mRNA in the absence of chemical substance” value (yeast gene YDR388W) of the same substance?
Answer: 0.7

Question: And the “The level of expressed mRNA in the presence of chemical substance/” value (yeast gene YDR411C, ratio to control without chemical substance, 2 h culture)?
Answer: 2.8

Question: What about the “The level of expressed mRNA in the presence of chemical substance/The level of expressed mRNA in the absence of chemical substance” value (yeast gene YDR432W) of the same substance?
Answer: 0.8

Question: And the “The level of expressed mRNA in the presence of chemical substance/The level of expressed mRNA in the absence of chemical substance” value (yeast gene YDR481C)?
Answer: 2.3

Question: What about the “The level of expressed mRNA in the presence of chemical substance/The level of expressed mRNA in the absence of chemical substance” value (yeast gene YDR510W) of the same substance?
Answer: 1.3

Question: And the “The level of expressed mRNA in the presence of chemical substance/” value (yeast gene YDR511W, ratio to control without chemical substance, 2 h culture)?
Answer: 1.7

Question: And the “The level of expressed mRNA in the presence of chemical substance/” value (yeast gene YDR545W, ratio to control without chemical substance, 2 h culture)?
Answer: 1.2

Question: And the “The level of expressed mRNA in the presence of chemical substance/” value (yeast gene YEL001C, ratio to control without chemical)?
Answer: 1.0

Question: And the “The level of expressed mRNA in the presence of chemical substance/The level of expressed mRNA in the absence of chemical substance” value (yeast gene YEL042W)?
Answer: 0.9

Question: What about the “The level of expressed mRNA in the presence of chemical substance/The level of expressed mRNA in the absence of chemical substance” value (yeast gene YEL066W) of the same substance?
Answer: 2.9

Question: What about the “The level of expressed mRNA in the presence of chemical substance/” value (yeast gene YER004W, ratio to control without chemical substance, 2 h culture) of the same substance?
Answer: 1.5

Question: And the “The level of expressed mRNA in the presence of chemical substance/” value (yeast gene YER035W, ratio to control without chemical substance, 2 h culture)?
Answer: 1.6

Question: What about the “The level of expressed mRNA in the presence of chemical substance/The level of expressed mRNA in the absence of chemical substance” value (yeast gene YER039C) of the same substance?
Answer: 1.2

Question: And the “The level of expressed mRNA in the presence of chemical substance/” value (yeast gene YER079W, ratio to control without chemical substance, 2 h culture)?
Answer: 1.6

Question: And the “The level of expressed mRNA in the presence of chemical substance/” value (yeast gene YER106W, ratio to control without chemical)?
Answer: 0.7

Question: And the “The level of expressed mRNA in the presence of chemical substance/The level of expressed mRNA in the absence of chemical substance” value (yeast gene YER107C)?
Answer: 0.5

Question: And the “The level of expressed mRNA in the presence of chemical substance/The level of expressed mRNA in the absence of chemical substance” value (yeast gene YER130C)?
Answer: 1.6

Question: And the “The level of expressed mRNA in the presence of chemical substance/” value (yeast gene YER158C, ratio to control without chemical substance, 2 h culture)?
Answer: 0.9

Question: What about the “The level of expressed mRNA in the presence of chemical substance/” value (yeast gene YER163C, ratio to control without chemical substance, 2 h culture) of the same substance?
Answer: 2.4

Question: What about the “The level of expressed mRNA in the presence of chemical substance/” value (yeast gene YER175C, ratio to control without chemical substance, 2 h culture) of the same substance?
Answer: 1.2

Question: What about the “The level of expressed mRNA in the presence of chemical substance/” value (yeast gene YFL006W, ratio to control without chemical substance, 2 h culture) of the same substance?
Answer: 2.8

From US20050112573A1, “Method of detecting toxic substance” (priority 2001, published 2005)
